# Measurements taken from paper PMC10079954, “Rational design of phase separating peptides based on phase separating protein sequence of p53” (Scientific Reports, 2023).
# Assay: Cross-β structure detection with amyloid-sensitive probe Picogreen
# Assay type: physicochemical
# Method: Differential interference contrast (DIC) microscopy confirmed that these peptides (0.9–1.8 mM) underwent phase separation in 25 mM HEPES and 0.5 mM EDTA at pH 7.0 (Fig. 2B). To prevent the melting of clusters on the coverslip surface, 2-methacryloyloxyethyl phosphorylcholine (MPC) polymer coating was used[36],[37] (Supplementary Fig. S1). Samples were prepared by sonicating a 2 mM peptide solution or diluting the peptide solution from a 10 mM peptide stock after storage under freezing conditions. Four of the designed peptides, except DPp53N-GSGS-DPp53C2, formed μm-sized spherical clusters. Fluorescence microscopy confirmed the high concentration of peptides labeled with the fluorescent dye Alexa488 in the clusters (Fig. 2B). […] Cross-β structure was also supported by the observation of intrinsic fluorescence upon 400–440 nm excitation[40] (Supplementary Fig. S2). Clusters of aromatic W residues in DPp53N-GSGS-DPp53C2 may lead to the formation of solid aggregates, which is consistent with the results of different systems[21],[34].
# The DIC and fluorescence modes of an inverted microscope (IX-73; Olympus, Tokyo, Japan) equipped with microscopic objectives (60 × and 10 ×) and a camera (DP74) were used, as described previously. We used the solution containing 0.9–1.8 mM designed peptide, 0.1 μM Alexa488-labeled peptide, 25 mM HEPES, and 0.5 mM EDTA at pH 7.0. To detect the cross-β structure, picogreen was added at 25 µM for DPp53N-GSGS-DPp53C2 or 2.5 µM for others instead of the Alexa488-labeled peptide. […] DIC and fluorescence images were obtained at 20 or 22 °C. For intrinsic fluorescence measurements, the excitation and detection wavelengths were 440–440 nm and larger than 460 nm, respectively.
# Fig. S8 Time course of cross-β structure formation of designed peptides in droplets monitored by DIC and fluorescence images. The fluorescence was detected corresponding to the amyloid marker Picogreen at 2.5 µM in a solution containing 0.9 mM designed peptides, 25 mM HEPES, and 0.5 mM EDTA at pH 7.0 and 22 °C.
sequence,measurement,setting,value
RRRVVQRRRRGGGSGGGSGGGSDDDASQEDDD [DPp53N-(GGGS)3-DPp53C1],Picogreen fluorescence intensity in droplets versus solution,"Picogreen 2.5 µM, 0.9 mM designed peptide, 25 mM HEPES, 0.5 mM EDTA, pH 7.0, 22 °C",higher than that in the solution
same,Cross-β structure and state of droplets after long-term incubation,long-term incubation,gel-like assemblies of the droplets
